Active and inactive are the calls of the source. The rule behind the calls is not given here.
Test system: Leishmania major promastigote growth inhibition
Assay: antileishmanial activity against L. major promastigotes – EC50, dose response (AID 2008)

| SMILES | EC50 |
| --- | --- |
| Nc1nsc2ccccc12 | 391 nM |
| CN(CCN1CCc2ccccc2C1)Cc1nc(Cc2ccccc2F)no1 | 1400 nM |
| O=C1c2ccccc2C(=O)C12Cc1ccccc1N1CCN(c3ccccc3)CC12 (centres undefined) | 1910 nM |
| Cc1nnc(Nc2ccccn2)c2ccccc12 | 722 nM |
| c1ccc(C2CCC(N3CCC(N4CCCCC4)CC3)CC2)cc1 (centres undefined) | 2530 nM |
| Cc1ccc2c(c1)-c1cc(C)nn1C(c1ccc3c(c1)OCO3)N2 (centres undefined) | 1590 nM |
| O=C(CCl)Nc1cccc(-c2cnc3ccccc3n2)c1 | 1110 nM |
| CCn1nc(/C=C/c2ccccc2)nc2c(=O)n(C)c(=O)nc1-2 | > 5000 nM (inactive) |
| CCOC(=O)c1nnn(-c2nonc2-n2cccc2)c1CCl | 1860 nM |
| O=Nc1c2cc(-c3ccccc3)[nH]nc-2c2ccccc12 | 2210 nM |
| O=C1C2CCN(CC2)C1Cc1ccc(OCCOc2ccccc2)cc1 (centres undefined) | 272 nM |
| Cc1cc(C)c2c(c1)-c1cc(C)nn1C(c1ccc3c(c1)OCO3)N2 (centres undefined) | 1320 nM |
| CC12CCC(C(=O)N(CCCN3CCN(Cc4ccccc4)CC3)C1=O)C2(C)C (centres undefined) | 565 nM |
| CN(C)c1nc(-c2ccccn2)nnc1-c1ccccc1 | 1460 nM |
| Cc1cc(/C=C2\Sc3ccccc3N2C)cc(C)[n+]1CC1CCCO1 (centres undefined) | 1 nM |
| Fc1cccc(-c2nnn3c2nc(Cl)c2ccccc23)c1 | 490 nM |
| Cc1ccc(-c2cc3cccc[n+]3cc2-c2ccc(C)cc2)cc1 | 228 nM |
| N=C(N)SCc1cn(-c2ccccc2)nc1-c1ccc(Br)cc1 | 1300 nM |
| COC(=O)c1ccc2c(c1)C(C)(C)C(/C=C/c1ccc(OC)c(OC)c1OC)=[N+]2C | 2.45 nM |
| Cc1ccc(OCCCCn2ccnc2)c(Cl)c1 | 131 nM |

| SMILES | EC50 |
| --- | --- |
| Nc1nn(-c2ccccc2)c(N)c1N=Nc1ccc2c(c1)OCO2 | 846 nM |
| COc1cc(CNCc2cccs2)ccc1OCc1ccccc1 | 162 nM |
| CC(C)(C)C1CCC2(CC1)Nc1cccc3cccc(c13)N2 | 1840 nM |
| Clc1ccc2[nH]cc(-c3nnnn3-c3ccc4ccccc4c3)c2c1 | 1540 nM |
| Cc1ccc(-c2cc(-c3ccc(C)cc3)[n+](C)o2)cc1 | 183 nM |
| O=C(c1ccc(-c2ccccc2)c(F)c1)C1CCCN(CCO)C1 (centres undefined) | 510 nM |
| CC(C)(C)c1ccc(-c2ncccc2O)cc1 | 299 nM |
| COC(=O)c1cccc(Cn2c(Cl)c(/C=N/Nc3ccccc3C)sc2=O)c1 | 528 nM |
| C=CCc1ccc(OCCCCCN2CCOCC2)c(OC)c1 | 970 nM |
| CCCCCCCCCCCCCCCCn1cc[n+](C)c1 | 35 nM |
| Cc1ccc(S(=O)(=O)c2ccc(Oc3cccc(C)c3)cc2)cc1 | 178 nM |
| Cc1ccc2c(c1)c(=O)c1c3n2CCN(C(=O)CCl)C3CC1 (centres undefined) | 1970 nM |
| C[n+]1c(-c2ccccc2)cc(CCCCc2cc(-c3ccccc3)[n+](C)c(-c3ccccc3)c2)cc1-c1ccccc1 | 702 nM |
| CCN(CC)CCN(C)C1CCC(c2ccccc2)CC1 (centres undefined) | 823 nM |
| Cc1[nH]c2c(Cl)cccc2c(=O)c1CN1CCCC1 | 390 nM |
| CCOC(=O)N=Nc1c2ccccc2c2nc3no[nH]c3nc12 | 784 nM |
| CCN(CC)C(=S)SSC(=S)N(CC)CC | 263 nM |
| CCN(CC)CCOC(c1ccccc1)c1ccc(C)cc1 (centres undefined) | 1100 nM |
| CC[n+]1c(/C=C/N(C)c2ccccc2)sc2ccc(Cl)cc21 | 172 nM |
| Cc1nn(-c2ccccn2)c2c1C(=O)C(Br)CC2 (centres undefined) | 967 nM |

| SMILES | EC50 |
| --- | --- |
| O=[N+]([O-])c1ccc(NNC(=S)Nc2ccc(F)cc2)cc1 | 449 nM |
| CN(C)CCOc1ccccc1Cc1ccccc1 | 498 nM |
| COc1cccc2c(=O)c(C/C=C(/C)Cl)c(C)[nH]c12 | 107 nM |
| Nc1cccc2nc3ccccc3cc12 | 635 nM |
| Cc1ccccc1NC1=C/C(=N\S(=O)(=O)c2cccs2)c2ccccc2C1=O | 208 nM |
| c1ccc2c(c1)OC(CCCN1CCCCC1)c1ccccc1S2 (centres undefined) | 134 nM |
| COC(=O)c1cc2ccsc2n1Cc1nc(-c2ccc(OC)cc2)oc1C | 104 nM |
| C[C@H]1C[C@@H](C)C(=O)[C@@H]([C@H](O)CC2CC(=O)NC(=O)C2)C1 | 1 nM |
| Cc1nn(-c2nc3ccccc3[nH]2)c(N)c1-c1ccc(Cl)cc1 | 1540 nM |
| NC(=O)c1cn(C2OC(CO)C(O)C2O)c2ncnc(N)c12 (centres undefined) | 164 nM |
| NC(C(=O)O)C1CC(Cl)=NO1 (centres undefined) | 177 nM |
| Cc1cccc(-c2cc3c(N=O)c4ccccc4c-3n[nH]2)c1 | 1540 nM |
| O=C1CC(c2ccccc2Br)c2cc3c(cc2N1)CCC3 (centres undefined) | 253 nM |
| O=C1C2ON(c3ccc(Br)cc3)C(c3cccnc3)C2C(=O)N1C1CCCCC1 (centres undefined) | 513 nM |
| CCN(CC)c1ccc(NC(=O)CN2CCN(S(=O)(=O)c3cc(Cl)ccc3OC)CC2)cc1 | 3640 nM |
| N=c1c2c(n(Cc3ccccc3)c3c1CCC3)CCC2 | 83.4 nM |
| Cc1c(Cl)sn(-c2ccc(Cl)cc2)c1=O | 545 nM |
| O=[N+]([O-])c1cc(-c2nnc(C34CC5CC(CC(C5)C3)C4)o2)cc([N+](=O)[O-])c1 | 115 nM |
| N#CC(c1ccc(Cl)cc1)c1ccc2c(C(F)(F)F)cc(C(F)(F)F)nc2n1 (centres undefined) | 564 nM |

Source: PubChem BioAssay AID2008 (University of Pittsburgh Molecular Library Screening Center, 2009)
